Assay results reported in PMC5853558, “De novo identification of lipid II binding lipopeptides with antibacterial activity against vancomycin-resistant bacteria” (Chemical Science, 2017).
Converted amounts (≈) assume the structure as drawn. *1 amine or outer side, *2 acyl side, *3 side chain or, on linkers, in order; H or OH if unused. Where a SMILES comes first, the peptide text is derived from it. Bridges are numbered along the chain shown (N, C = ends). [ ]: non-standard residue; d: D form. The star is where a group is joined. TBMB = c1c(C[*:1])cc(C[*:3])cc1C[*:2]; NHDecyl = CCCCCCCCCCN*

Experiments:
E. faecium E980 = assay: UDP-MurNAc-pentapeptide accumulation assay; format: cell-based, Enterococcus faecium; settings: E. faecium E980, peptides at 10x MIC, 30 min, chloramphenicol 130 µg/ml pre-treatment, LCMS; triplicate measurements
Description: We next examined the effect of the optimized P8-D-(S6R, R15A)-C10 lipopeptide on cell wall biosynthesis in live bacteria. Specifically, we employed an assay where the accumulation of the soluble intracellular lipid II precursor UDP-MurNAc-pentapeptide is measured in response to antibiotic administration. Antibiotics known to interfere with cell wall biosynthesis by sequestration of lipid II (i.e. vancomycin) can lead to UDP-MurNAc-pentapeptide accumulation in the cytosol which can then be extracted and assessed by chromatographic means.[18],[33] […] The effect of the lipopeptides on bacterial cell morphology was further investigated using scanning electron microscopy. To this end, VRE 155 cells were imaged after exposure to either P8-D-(S6R, R15A)-C10 or nisin at 2× the MIC.
Section 4 Biological and biochemical experiments
4.1 Minimum inhibitory concentration assay
MIC values were determined by using the broth microdilution method. […]
determining the MICs of the lipidated peptides, the lipopeptides were first dissolved in DMSO and diluted with TSB so that the peptide concentration was 128 µg/ml and the DMSO concentration was 4%. After inoculation the highest peptide concentration evaluated was 64 µg/ml and the DMSO concentration was 2%. […]
Hemolysis was determined by measuring the absorption at 414 nm to measure the amount of free […]

M. luteus (NCTC2665) = assay: microbe, parasite or virus in culture; format: cell-based, Micrococcus luteus
Summary of the method: (§1)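 Growth inhibition was scored by broth microdilution in TSB against peptide serial dilutions (maximum 512 µg/ml; lipidated analogues maximum 64 µg/ml; 2% DMSO). Bacteria reaching OD600 0.5 were added from a 1 x 10^6 CFU/ml suspension, then plates were incubated shaking at 250 rpm.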

S. epidermidis (1587) = assay: microbe, parasite or virus in culture; format: cell-based
Summary of the method: as §1

B. subtilis (168) = assay: microbe, parasite or virus in culture; format: cell-based
Summary of the method: as §1

S. pyogenes (5448) = assay: microbe, parasite or virus in culture; format: cell-based
Summary of the method: as §1

E. faecium (VRE7391) = assay: microbe, parasite or virus in culture; format: cell-based, Enterococcus faecium
Summary of the method: as §1

E. faecium (E980) = assay: microbe, parasite or virus in culture; format: cell-based, Enterococcus faecium
Summary of the method: as §1

[1] = Supplemental table S9, MIC values of Table 2 expressed in µM
[2] = Table 2, broth microdilution in TSB, 16 h, read visually, highest tested 64 µg/ml, 2% DMSO
[3] = Table 2, broth microdilution in TSB, 16 h, read visually, highest tested 64 µg/ml
[4] = Supplemental table S9, vancomycin-resistant isolate, MIC values of Table 2 expressed in µM
[5] = Table 2, vancomycin-resistant isolate from hospitalized patients, broth microdilution in TSB, 16 h, highest tested 64 µg/ml

SMILES | Accumulation of UDP-MurNAc-pentapeptide (E. faecium E980) | MIC M. luteus (NCTC2665) (M. luteus (NCTC2665); [1]) | MIC M. luteus (NCTC2665) (M. luteus (NCTC2665); [2]) | MIC S. epidermidis (1587) (S. epidermidis (1587); [1]) | MIC S. epidermidis (1587) (S. epidermidis (1587); [3]) | MIC B. subtilis (168) (B. subtilis (168); [1]) | MIC B. subtilis (168) (B. subtilis (168); [3]) | MIC S. pyogenes (5448) (S. pyogenes (5448); [3]) | MIC E. faecium (VRE7391) (E. faecium (VRE7391); [4]) | MIC E. faecium (VRE7391) (E. faecium (VRE7391); [5]) | MIC E. faecium (E980) (E. faecium (E980); [1]) | MIC E. faecium (E980) (E. faecium (E980); [3]) | MIC S. pyogenes (5448) (S. pyogenes (5448); [1])
CCCCCCCCCCNC(=O)CNC(=O)[C@H]1CSCc2cc3cc(c2)CSC[C@@H](NC(=O)[C@@H](CC(C)C)NC(=O)[C@@H](CC(C)C)NC(=O)[C@@H](CCCNC(=N)N)NC(=O)[C@@H](CCC(N)=O)NC(=O)[C@@H](CC(C)C)NC(=O)[C@@H](CC(C)C)NC(=O)[C@H](NC(=O)[C@@H](C)N)CSC3)C(=O)N2CCC[C@@H]2C(=O)N[C@H](Cc2ccc(O)cc2)C(=O)N[C@H](CO)C(=O)N[C@H]([C@H](C)O)C(=O)N[C@H](Cc2c[nH]cn2)C(=O)N[C@H](C)C(=O)N1 [P8-D-(S6R, R15A)-C10] (H-[dA][dC][dL][dL][dQ][dR][dL][dL][dC][dP][dY][dS][dT][dH][dA][dC]G-NHDecyl; linker 2-9-16 via TBMB; N-terminus assumed) | significant accumulation | 3.8 µM (≈ 7.99 µg/mL) | 4 μg mL^–1 | 60.9 µM (≈ 128 µg/mL) | 64 μg mL^–1 | 7.6 µM (≈ 16 µg/mL) | 8 μg mL^–1 | 8–16 μg mL^–1 | 15.2 µM (≈ 32 µg/mL) | 16 μg mL^–1 | 30.5 µM (≈ 64.1 µg/mL) | 32 μg mL^–1 | 
CCCCCCCCCCNC(=O)CNC(=O)[C@@H]1CSCc2cc3cc(c2)CSC[C@H](NC(=O)[C@H](CC(C)C)NC(=O)[C@H](CC(C)C)NC(=O)[C@H](CCCNC(=N)N)NC(=O)[C@H](CCC(N)=O)NC(=O)[C@H](CC(C)C)NC(=O)[C@H](CC(C)C)NC(=O)[C@@H](NC(=O)[C@H](C)N)CSC3)C(=O)N2CCC[C@H]2C(=O)N[C@@H](Cc2ccc(O)cc2)C(=O)N[C@@H](CO)C(=O)N[C@@H]([C@@H](C)O)C(=O)N[C@@H](Cc2c[nH]cn2)C(=O)N[C@@H](C)C(=O)N1 [P8-L-(S6R, R15A)-C10] (H-ACLLQRLLCPYSTHACG-NHDecyl; linker 2-9-16 via TBMB; N-terminus assumed) | significant accumulation | 3.8 µM (≈ 7.99 µg/mL) | 4 μg mL^–1 | 30.5 µM (≈ 64.1 µg/mL) | 32 μg mL^–1 | 7.6 µM (≈ 16 µg/mL) | 8 μg mL^–1 | 8 μg mL^–1 | 15.2 µM (≈ 32 µg/mL) | 16 μg mL^–1 | 30.5 µM (≈ 64.1 µg/mL) | 32 μg mL^–1 | 7.6 µM (≈ 16 µg/mL)
